Reference: ChEMBL document CHEMBL1201862, “PubChem BioAssay data set” (2004)
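Step 1: Grow cells in 96-well plates. Step 2: Expose to compound for 48 hours at 5 concentrations. Step 3: Interpolate endpoints linearly; if unreached, use highest concentration. Here, GI50 denotes the concentration required for 50% inhibition of growth.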 Calls of active or inactive are those of the source. Rule as the data show it: active = GI50 up to about 1.1 µM and inactive = higher.

Tests used:
Assay in all cases: DTP human tumour cell line panel, 48 h
RPMI-8226 = system: RPMI-8226
Hs-578T = system: Hs-578T
HCC 2998 = system: HCC 2998
KM12 = system: KM12
OVCAR-8 = system: OVCAR-8
NCI-H460 = system: NCI-H460
SNB-19 = system: SNB-19
Malme-3M = system: Malme-3M
DU-145 = system: DU-145
SN12C = system: SN12C
TK-10 = system: TK-10
HOP-92 = system: HOP-92
OVCAR-3 = system: OVCAR-3
HOP-62 = system: HOP-62
NCI-H226 = system: NCI-H226
MDA-MB-435 = system: MDA-MB-435
T47D = system: T47D
UO-31 = system: UO-31
786-0 = system: 786-0
CAKI-1 = system: CAKI-1

Structure (SMILES)	GI50 (RPMI-8226)	GI50 (Hs-578T)	GI50 (HCC 2998)	GI50 (KM12)	GI50 (OVCAR-8)	GI50 (NCI-H460)	GI50 (SNB-19)	GI50 (Malme-3M)	GI50 (DU-145)	GI50 (SN12C)	GI50 (TK-10)	GI50 (HOP-92)	GI50 (OVCAR-3)	GI50 (HOP-62)	GI50 (NCI-H226)	GI50 (MDA-MB-435)	GI50 (T47D)	GI50 (UO-31)	GI50 (786-0)	GI50 (CAKI-1)
CC1(C)COCN1COC1CCCCC1	> 100 µM (inactive)	> 100 µM (inactive)	> 100 µM (inactive)	> 100 µM (inactive)	> 100 µM (inactive)	> 100 µM (inactive)	> 100 µM (inactive)	> 100 µM (inactive)	> 100 µM (inactive)	> 100 µM (inactive)	> 100 µM (inactive)	> 100 µM (inactive)	> 100 µM (inactive)	> 100 µM (inactive)	> 100 µM (inactive)	> 100 µM (inactive)	> 100 µM (inactive)	> 100 µM (inactive)	> 100 µM (inactive)	> 100 µM (inactive)
O=C1/C(=C/c2ccc(O)c(CN3CCCCC3)c2)CCC/C1=C\c1ccc(O)c(CN2CCCCC2)c1	6.85 µM (inactive)	8.24 µM (inactive)	5.64 µM (inactive)	4.12 µM (inactive)	4.48 µM (inactive)	3.05 µM (inactive)	5.04 µM (inactive)	13.6 µM (inactive)	4.4 µM (inactive)	8.79 µM (inactive)	6.17 µM (inactive)	4.26 µM (inactive)	5.12 µM (inactive)	5.04 µM (inactive)	15.5 µM (inactive)	4.66 µM (inactive)	17.5 µM (inactive)	10.4 µM (inactive)	3.52 µM (inactive)	18.8 µM (inactive)
O=C(O)C(Cc1ccccc1)NCc1c(O)ccc2c(-c3ccccc3)cc(=O)oc12 (stereo not given)	> 100 µM (inactive)	> 100 µM (inactive)	> 100 µM (inactive)	> 100 µM (inactive)	> 100 µM (inactive)	> 100 µM (inactive)	> 100 µM (inactive)	> 100 µM (inactive)	> 100 µM (inactive)	> 100 µM (inactive)	> 100 µM (inactive)	> 100 µM (inactive)	> 100 µM (inactive)	> 100 µM (inactive)	> 100 µM (inactive)	> 100 µM (inactive)	> 100 µM (inactive)	> 100 µM (inactive)	> 100 µM (inactive)	> 100 µM (inactive)
S=C(N/N=C(/c1ccccc1)c1ccccn1)N(Cc1ccccn1)Cc1ccccn1	< 0.0302 µM (active)	1.41 µM (inactive)	1.63 µM (inactive)	0.432 µM (active)	< 0.01 µM (active)	0.116 µM (active)	0.444 µM (active)	0.0655 µM (active)	0.564 µM (active)	< 0.01 µM (active)	0.236 µM (active)	0.174 µM (active)	0.183 µM (active)	0.964 µM (active)	< 0.0488 µM (active)	0.841 µM (active)	< 0.0177 µM (active)	0.356 µM (active)	0.475 µM (active)	0.0822 µM (active)
CC(C)(C)C1=CC(=C2C=Cc3ccccc3O2)C=C(C(C)(C)C)C1=O	2.15 µM (inactive)	7 µM (inactive)	1.61 µM (inactive)	2.47 µM (inactive)	6.37 µM (inactive)	1.6 µM (inactive)	9.16 µM (inactive)	3.81 µM (inactive)	4.71 µM (inactive)	3.21 µM (inactive)	3.87 µM (inactive)	13.9 µM (inactive)	2.23 µM (inactive)	6.04 µM (inactive)	8.79 µM (inactive)	1.75 µM (inactive)	1.77 µM (inactive)	4.68 µM (inactive)	2.67 µM (inactive)	3.07 µM (inactive)
CC(CN1CC(=O)NC(=O)C1)N1CC(=O)NC(=O)C1 (stereo not given) [RAZOXANE]	254 µM (inactive)	72.3 µM (inactive)	339 µM (inactive)	398 µM (inactive)	460 µM (inactive)	11.1 µM (inactive)	313 µM (inactive)	52.2 µM (inactive)	160 µM (inactive)	112 µM (inactive)	168 µM (inactive)	211 µM (inactive)	356 µM (inactive)	54.7 µM (inactive)	68.1 µM (inactive)	485 µM (inactive)	231 µM (inactive)	349 µM (inactive)	98.9 µM (inactive)	109 µM (inactive)
